A value given as a limit tells only on which side of the number the result lay.

For this experiment, the system named is recombinant rabies virus 1088 strain expressing Gaussia Luciferase (GLuc) (1088/GLuc). It is filed as cell-based. The following applies: read-out: Anti-rabies activity.

With `CC(C)CCN1C[C@H]2C[C@]3(C(=O)NCC(C)C)NC[C@H]2[C@H]1[C@H]3CCc1ccccc1` [IF-635], the IC50 lay in the range of 10 to 30 µM.
Under `CC(C)C[C@@H]1[C@@H]2[C@@H]3CN[C@@]1(C(=O)NCc1ccccc1)C[C@@H]3CN2CCc1ccccc1` [IF-639] stands under 5 µM; under `O=C(NCc1ccccc1)[C@@]12C[C@@H]3CN(CCc4ccccc4)[C@@H]([C@@H]3CN1)[C@H]2Cc1ccc(O)cc1` [IF-640], 10 to 30 µM; under `CC(C)CNC(=O)[C@@]12C[C@@H]3CN(CCc4ccccc4)[C@@H]([C@@H]3CN1)[C@H]2Cc1ccccc1` [IF-641], under 5 µM.
Consider `CC(C)C[C@@H]1[C@@H]2[C@@H]3CN[C@@]1(C(=O)NCc1ccccc1)C[C@@H]3CN2CC1CCCCC1` [IF-644], for which the IC50 is under 5 µM.
Under `O=C(NCc1ccccc1)[C@@]12C[C@@H]3CN(CC4CCCCC4)[C@@H]([C@@H]3CN1)[C@H]2Cc1ccc(O)cc1` [IF-645] stands 10 to 30 µM.
Under `CC(C)CNC(=O)[C@@]12C[C@@H]3CN(CC4CCCCC4)[C@@H]([C@@H]3CN1)[C@H]2Cc1cccc2ccccc12` [IF-646] stands under 5 µM; under `O=C(NCc1ccccc1)[C@@]12C[C@@H]3CN(Cc4ccc(F)cc4)[C@@H]([C@@H]3CN1)[C@H]2Cc1ccccc1` [IF-649], under 5 µM.
The value for `CC(C)C[C@@H]1[C@@H]2[C@@H]3CN[C@@]1(C(=O)NCc1ccccc1)C[C@@H]3CN2Cc1ccc(F)cc1` [IF-650] was under 5 µM.
In the case of `CC(C)CNC(=O)[C@@]12C[C@@H]3CN(Cc4ccc(F)cc4)[C@@H]([C@@H]3CN1)[C@H]2CCc1ccccc1` [IF-652], the IC50 is under 5 µM.
Under `CC(C)CNC(=O)[C@@]12C[C@@H]3CN(Cc4ccc(F)cc4)[C@@H]([C@@H]3CN1)[C@H]2Cc1ccccc1` [IF-653] stands 10 to 30 µM.
Under `CC(C)CNC(=O)[C@@]12C[C@@H]3CN(Cc4ccc(F)cc4)[C@@H]([C@@H]3CN1)[C@H]2CC(C)C` [IF-654] stands under 5 µM.
Take `CC(C)CCNC(=O)[C@@]12C[C@@H]3CN(CCO)[C@@H]([C@@H]3CN1)[C@H]2Cc1ccccc1` [IF-656]: the IC50 fell in the range of 10 to 30 µM.
Take `CC(C)CCNC(=O)[C@@]12C[C@@H]3CN(CCc4ccccc4)[C@@H]([C@@H]3CN1)[C@H]2CC(C)C` [IF-657]: the IC50 was under 5 µM.
Under `CC(C)CCNC(=O)[C@@]12C[C@@H]3CN(CC4CCCCC4)[C@@H]([C@@H]3CN1)[C@H]2Cc1ccccc1` [IF-658] stands under 5 µM.
Under `CC(C)CCNC(=O)[C@@]12C[C@@H]3CN(CC4CCCCC4)[C@@H]([C@@H]3CN1)[C@H]2CC(C)C` [IF-659] stands 10 to 30 µM; under `CC(C)CCNC(=O)[C@@]12C[C@@H]3CN(CCO)[C@@H]([C@@H]3CN1)[C@H]2Cc1cccc2ccccc12` [IF-660], 10 to 30 µM.
In the case of `CC(C)CCNC(=O)[C@@]12C[C@@H]3CN(Cc4ccccc4)[C@@H]([C@@H]3CN1)[C@H]2Cc1ccccc1` [IF-665], the IC50 is under 5 µM.
Under `CC(C)CNC(=O)[C@@]12C[C@@H]3CN(Cc4ccccc4)[C@@H]([C@@H]3CN1)[C@H]2CCc1ccccc1` [IF-670] stands under 5 µM.
On to `CC(C)CCNC(=O)[C@@]12C[C@@H]3CN(CC(C)C)[C@@H]([C@@H]3CN1)[C@H]2CCc1ccccc1` [IF-673], for which the IC50 was under 5 µM.
The value for `CC(C)CCNC(=O)[C@@]12C[C@@H]3CN(CC(C)C)[C@@H]([C@@H]3CN1)[C@H]2Cc1cccc2ccccc12` [IF-674] was 10 to 30 µM.
The value for `CC(C)CC[C@@H]1[C@@H]2[C@@H]3CN[C@@]1(C(=O)NCc1ccccc1)C[C@@H]3CN2CC(C)C` [IF-675] was under 5 µM; that for `CC(C)CNC(=O)[C@@]12C[C@@H]3CN(CC(C)C)[C@@H]([C@@H]3CN1)[C@H]2CCc1ccccc1` [IF-679] was under 5 µM; that for `CC(C)CNC(=O)[C@@]12C[C@@H]3CN(CC(C)C)[C@@H]([C@@H]3CN1)[C@H]2Cc1cccc2ccccc12` [IF-680] was 10 to 30 µM.
Under `CC(C)CCNC(=O)[C@@]12C[C@@H]3CN(Cc4ccc(O)cc4)[C@@H]([C@@H]3CN1)[C@H]2Cc1cccc2ccccc12` [IF-684] stands 10 to 30 µM; under `CC(C)CCNC(=O)[C@@]12C[C@@H]3CN(Cc4ccccc4)[C@@H]([C@@H]3CN1)[C@H]2CC(C)C` [IF-691], 10 to 30 µM; under `CCCCCCNC(=O)[C@@]12C[C@@H]3CN(Cc4ccccc4)[C@@H]([C@@H]3CN1)[C@H]2Cc1ccc(O)cc1` [IF-692], under 5 µM.
For `CC(C)C[C@@H]1[C@@H]2[C@@H]3CN[C@@]1(C(=O)NCCC(N)=O)C[C@@H]3CN2CCc1ccccc1` [IF-699], the IC50 was in the range of 10 to 30 µM.
With `CC(C)CCN1C[C@H]2C[C@]3(C(=O)NCc4cccc5ccccc45)NC[C@H]2[C@H]1[C@H]3CC(C)C` [IF-705], the IC50 is under 5 µM.
Take `CC(C)CCN1C[C@H]2C[C@]3(C(=O)NCc4cccc5ccccc45)NC[C@H]2[C@H]1[C@H]3Cc1ccc(O)cc1` [IF-706]: the IC50 is under 5 µM.
Under `CC(C)CCNC(=O)[C@@]12C[C@@H]3CN(CCc4ccccc4)[C@@H]([C@@H]3CN1)[C@H]2Cc1ccc(O)cc1` [IF-707] stands under 5 µM.
With `O=C(NCCc1ccccc1)[C@@]12C[C@@H]3CN(Cc4cccc5ccccc45)[C@@H]([C@@H]3CN1)[C@H]2Cc1ccc(O)cc1` [IF-708], the IC50 was under 5 µM.
Regarding `CC(C)CCNC(=O)[C@@]12C[C@@H]3CN(CC4CCCCC4)[C@@H]([C@@H]3CN1)[C@H]2Cc1ccc(O)cc1` [IF-709], the IC50 fell in the range of 10 to 30 µM.
Take `O=C(NCCc1ccccc1)[C@@]12C[C@@H]3CN(CC4CCCCC4)[C@@H]([C@@H]3CN1)[C@H]2Cc1ccccc1` [IF-710]: the IC50 is under 5 µM.
With `CC(C)C[C@@H]1[C@@H]2[C@@H]3CN[C@@]1(C(=O)NCCc1ccccc1)C[C@@H]3CN2CC1CCCCC1` [IF-711], the IC50 lay within 10 to 30 µM.
The value for `CC(C)C[C@@H]1[C@@H]2[C@@H]3CN[C@@]1(C(=O)NCCc1ccccc1)C[C@@H]3CN2Cc1ccc(F)cc1` [IF-714] was under 5 µM; that for `O=C(NCCc1ccccc1)[C@@]12C[C@@H]3CN(Cc4ccc(F)cc4)[C@@H]([C@@H]3CN1)[C@H]2Cc1ccc(O)cc1` [IF-715] was under 5 µM; that for `CC(C)CC[C@@H]1[C@@H]2[C@@H]3CN[C@@]1(C(=O)NCCc1ccccc1)C[C@@H]3CN2CC1CCCCC1` [IF-717] was under 5 µM.
Turning to `O=C(NCCc1ccccc1)[C@@]12C[C@@H]3CN(CC4CCCCC4)[C@@H]([C@@H]3CN1)[C@H]2Cc1cccc2ccccc12` [IF-718], the IC50 was under 5 µM.
Turning to `CC(C)C[C@@H]1[C@@H]2[C@@H]3CN[C@@]1(C(=O)NCCc1ccccc1)C[C@@H]3CN2Cc1ccccc1` [IF-721], the IC50 is under 5 µM.
The value for `O=C(NCCc1ccccc1)[C@@]12C[C@@H]3CN(Cc4ccccc4)[C@@H]([C@@H]3CN1)[C@H]2Cc1ccc(O)cc1` [IF-722] was under 5 µM; that for `CC(C)CC[C@@H]1[C@@H]2[C@@H]3CN[C@@]1(C(=O)NCCc1ccccc1)C[C@@H]3CN2Cc1ccccc1` [IF-723] was 10 to 30 µM.
`CC(C)C[C@@H]1[C@@H]2[C@@H]3CN[C@@]1(C(=O)NCCc1ccccc1)C[C@@H]3CN2CC(C)C` [IF-725]: the IC50 was in the range of 10 to 30 µM.
Under `CC(C)C[C@@H]1[C@@H]2[C@@H]3CN[C@@]1(C(=O)NCc1cccc4ccccc14)C[C@@H]3CN2CC(C)C` [IF-726] stands 10 to 30 µM; under `CC(C)CC[C@@H]1[C@@H]2[C@@H]3CN[C@@]1(C(=O)NCCc1ccccc1)C[C@@H]3CN2CC(C)C` [IF-727], under 5 µM; under `CC(C)CCN1C[C@H]2C[C@]3(C(=O)NCc4ccccc4)NC[C@H]2[C@H]1[C@H]3CC(C)C` [IF-733], under 5 µM.
For the molecule `CC(C)CCN1C[C@H]2C[C@]3(C(=O)NCC(C)C)NC[C@H]2[C@H]1[C@H]3Cc1cccc2ccccc12` [IF-734], the IC50 was under 5 µM.
On to `CC(C)CCN1C[C@H]2C[C@]3(C(=O)NCC(C)C)NC[C@H]2[C@H]1[C@H]3Cc1ccccc1` [IF-735], for which the IC50 was 10 to 30 µM.
With `CC(C)CNC(=O)[C@@]12C[C@@H]3CN(CCc4ccccc4)[C@@H]([C@@H]3CN1)[C@H]2CC(C)C` [IF-738], the IC50 lay in the range of 10 to 30 µM.
The value for `CC(C)CNC(=O)[C@@]12C[C@@H]3CN(Cc4cccc5ccccc45)[C@@H]([C@@H]3CN1)[C@H]2CC(C)C` [IF-739] was under 5 µM.
On to `CC(C)CC[C@@H]1[C@@H]2[C@@H]3CN[C@@]1(C(=O)NCc1ccccc1)C[C@@H]3CN2CC1CCCCC1` [IF-740], for which the IC50 was 10 to 30 µM.
`CC(C)CNC(=O)[C@@]12C[C@@H]3CN(CC4CCCCC4)[C@@H]([C@@H]3CN1)[C@H]2CC(C)C` [IF-742]: the IC50 lay within 10 to 30 µM.
Under `CC(C)CC[C@@H]1[C@@H]2[C@@H]3CN[C@@]1(C(=O)NCc1ccccc1)C[C@@H]3CN2Cc1ccc(F)cc1` [IF-743] stands 10 to 30 µM.
The value for `CC(C)CCNC(=O)[C@@]12C[C@@H]3CN(CCc4ccccc4)[C@@H]([C@@H]3CN1)[C@H]2Cc1ccccc1` [IF-744] was under 5 µM; that for `CC(C)CN1C[C@H]2C[C@]3(C(=O)NCc4ccccc4)NC[C@H]2[C@H]1[C@H]3Cc1cccc2ccccc12` [IF-753] was 10 to 30 µM; that for `O=C(NCc1cccc2ccccc12)[C@@]12C[C@@H]3CN(CCO)[C@@H]([C@@H]3CN1)[C@H]2Cc1ccccc1` [IF-758] was under 5 µM.
Under `CC(C)CN1C[C@H]2C[C@]3(C(=O)NCc4cccc5ccccc45)NC[C@H]2[C@H]1[C@H]3Cc1cccc2ccccc12` [IF-778] stands under 5 µM; under `O=C(NCc1cccc2ccccc12)[C@@]12C[C@@H]3CN(Cc4ccc(O)cc4)[C@@H]([C@@H]3CN1)[C@H]2Cc1cccc2ccccc12` [IF-779], 10 to 30 µM.
For `CC(C)NC(=O)[C@@]12C[C@@H]3CN(Cc4cccc5ccccc45)[C@@H]([C@@H]3CN1)[C@H]2CCc1ccccc1` [IF-789], the IC50 lay in the range of 10 to 30 µM.
Under `O=C(NCc1cccc2ccccc12)[C@@]12C[C@@H]3CN(Cc4ccccc4)[C@@H]([C@@H]3CN1)[C@H]2Cc1ccccc1` [IF-805] stands 10 to 30 µM; under `CC(C)C[C@@H]1[C@@H]2[C@@H]3CN[C@@]1(C(=O)NCc1ccc(F)cc1)C[C@@H]3CN2Cc1ccccc1` [IF-807], under 5 µM.
As to `CC(C)CN1C[C@H]2C[C@]3(C(=O)NCc4ccc(F)cc4)NC[C@H]2[C@H]1[C@H]3Cc1ccccc1` [IF-815], the IC50 is under 5 µM.

For the origin of these results see patent US11780841B2, “3,6-methano-1H-pyrrolo[3,2-b]pyridine and 3,6-methano-1H-pyrrolo[3,2-c]pyridine compounds and medicaments using same” (priority 2018, dated 2023).
